According to patent US20050153872A1, “Methods and compositions for the treatment of infection” (priority 2004, published 2005):
≈ marks a conversion by molar mass, not a printed value. Like-named read-outs stand apart in the source and are kept apart here.

Experiments:
[1] = test system: Acenetobactor (20); test: In vitro antibacterial activity (MIC), clinical isolates; format: cell-based
Experimental: (§1) The following experiments were performed by Lab. of Pharmacology, National Sichuan antibiotic industril institute, Chengdu, Sichuan.
(§2) The following agents were used to test the in vitro activity of Ph-SA:
(§3) All the bacterial strains used in the experiments were clinical isolates collected from Sichuan and Beijing in 2002 and identified by West China Hospital, Sichuan University and Chongqing University of Medical Sciences with API system. The following strains were used in the experiments detailed below: Staphylococcus aureus 168 strains (MRSA 80 strains and MSSA 88 strains) Staphylococcus epidermidis 46 strains (MRSE 25 strains and MSSE 21 strains), Enterococcus 20 strains, and Acenetobactor 20 strains. Staphylococcus aureus ATCC25923, 29213 and BAA-42 were used as control strains. Bacterial strains were contacted with one of the above described compounds and MIC50, MIC90 and MICScope were determined.

[2] = test system: Enterococcus (20); test: as above; format: cell-based; conditions: 20 Enterococcus clinical isolates; for MIC50: read-out: MIC50; for MIC90: read-out: MIC90
Experimental: as §1, §2, §3

[3] = test system: Staphylococcus aureus MRSA strain (80); test: as above; format: cell-based
Experimental: as §1, §2, §3

[4] = test system: Staphylococcus aureus MSSA strain (88); test: as above; format: cell-based; conditions: Staphylococcus aureus; for MIC: read-out: MIC Scope
Experimental: as §1, §2, §3

[5] = test system: Staphylococcus epidermidis MRSE strain (25); test: as above; format: cell-based; conditions: for MIC50 / MIC90: Staphylococcus epidermidis, MRSE
Experimental: as §1, §2, §3

[6] = test system: Staphylococcus epidermidis MSSE strain (21); test: as above; format: cell-based; conditions: Staphylococcus epidermidis, 21 MSSE clinical isolates; for MIC50: read-out: MIC50; for MIC90: read-out: MIC90
Experimental: as §1, §2, §3

[7] = test system: Enterococcus faecalis ATCC 700802; test: microbe, parasite or virus in culture; format: cell-based; conditions: Enterococcus faecalis, ATCC700802
[8] = test system: Enterococcus faecalis ATCC 700802; test: In vivo protection of infected mice; design: species or system Kungming mice
Experimental: (§4) The following experiments were performed by Pharmacology Lab, National Sichuan antibiotic industril institute, Chengdu, Sichuan.
(§5) The agents described above were diluted with sterilized water to final concentrations of 10 mg/L, 5 mg/Land 2.5 mg/L.
(§6) Staphylococcus aureus ATCC BAA-42(MRSA) and enterococcus faecalis ATCC 700802 were used as control strains.
(§7) 170 mice (Kungming mice: 18˜22 g, 85 males and 85 females) were randomly divided into four groups and injected with a fatal dosage of staphylococci, enterococcus and E. coli intraperitoneally. […] Mice were inspected every 24 hours for 7-14 days. Dead mice were counted as positive results. The results are depicted in Table 3 and FIGS. 4 and 5A-B.

[9] = test system: Staphylococcus aureus MRSA 02-18; test: In vivo protection of infected mice; design: species or system Kungming mice
Experimental: as §4, §5, §6, §7

[10] = test system: Staphylococcus aureus MRSA BAA-42; test: In vivo protection of infected mice; design: species or system Kungming mice
Experimental: as §4, §5, §6, §7

[11] = test system: Staphylococcus aureus MRSA BAA-42; test: microbe, parasite or virus in culture; format: cell-based
[12] = test system: Staphylococcus aureus MRSA 02-18; test: microbe, parasite or virus in culture; format: cell-based; conditions: Staphylococcus aureus, MRSA
[13] = test system: Staphylococcus aureus ATCC 29213; test: MIC against challenge strain (Table 3); format: cell-based
[14] = test system: Escherichia coli 02-1-65; test: In vivo protection of infected mice; design: species or system Kungming mice; conditions: i.p. infection 3.3 × 10^5 cfu/ml
Experimental: as §4
(§8) The agents described above were diluted with sterilized water to final concentrations of 10 mg/L, 5 mg/Land 2.5 mg/L. […]
as §7

[15] = test system: Staphylococcus aureus ATCC 29213; test: In vivo protection of infected mice; design: species or system Kungming mice; conditions: i.p. infection 3.6 × 10^5 cfu/ml
Experimental: as §4, §8, §7

[16] = test system: Escherichia coli 02-1-65; test: MIC against challenge strain (Table 3); format: cell-based; conditions: 02165, read-out: MIC
[17] = test system: Candida albicans ATCC 10231; test: In vitro cell growth inhibition assay (OD595, filaments)
[18] = test system: S. aureus strain ATCC BAA-42 MRSA; conditions: all agents 5 μg/ml
[19] = 1st Time, i.v. treatment after one hour
[20] = 2nd Time (value in parentheses), i.v. treatment

CC1(C)S[C@@H]2[C@H](NC(=O)[C@H](N)c3ccccc3)C(=O)N2[C@H]1C(=O)O [Ampicillin, sodium ampicillin]
MIC50 [1]: > 128 µg/mL
MIC90 [1]: > 128 µg/mL
MIC [2]: 0.25 to 16 µg/mL
MIC50 [2]: 0.5 µg/mL
MIC90 [2]: 16 µg/mL
MIC Scope ([3]; 80 MRSA clinical isolates): 0.06˜64 mg/l
MIC50 ([3]; Staphylococcus aureus, MRSA): 16 µg/mL
MIC90 ([3]; Staphylococcus aureus, MRSA): 32 µg/mL
MIC50 ([4]; MSSA): 0.25 µg/mL
MIC90 ([4]; MSSA): 1 µg/mL
MIC ([4]; MSSA): 0.015 to 0.25 µg/mL
MIC Scope ([5]; 25 MRSE clinical isolates): 0.06˜64 mg/l
MIC50 [5]: 16 µg/mL
MIC90 [5]: 64 µg/mL
MIC [6]: 0.015 to 0.25 µg/mL
MIC50 [6]: 0.03 µg/mL
MIC90 [6]: 0.25 µg/mL
MIC [7]: 0.125 µg/mL
ED50 ([8]; Enterococcus faecalis, ATCC700802): 3 mg/kg
ED50 ([8]; Enterococcus faecalis, ATCC700802, 1 h): 3.37 mg/kg
ED50 ([9]; Staphylococcus aureus, MRSA): > 20 mg/kg
ED50 ([9]; Staphylococcus aureus, MRSA, 1 h): 32.7 mg/kg
ED50 ([10]; Staphylococcus aureus): 23.4 mg/kg
ED50 ([10]; Staphylococcus aureus, 1 h): 25.2 mg/kg
MIC ([11]; Staphylococcus aureus): 0.25 µg/mL
MIC [12]: 8 µg/mL
MIC ([13]; ATCC29213, read-out: MIC): < 0.015 µg/mL
ED50 ([14]; Escherichia coli, 02165, 2nd Time (value in parentheses), i.v. treatment, read-out: ED50): > 30.8 mg/kg
ED50 ([14]; Escherichia coli, 02165, 1 h, 1st Time, i.v. treatment after one hour, read-out: ED50): > 30.8 mg/kg
ED50 ([15]; Staphylococcus aureus, ATCC29213, 2nd Time (value in parentheses), i.v. treatment, read-out: ED50): 12.3 mg/kg
ED50 ([15]; Staphylococcus aureus, ATCC29213, 1 h, 1st Time, i.v. treatment after one hour, read-out: ED50): 14.2 mg/kg
MIC [16]: > 128 µg/mL
effect on growth of Candida albicans ([17]; Ph-CA 5 μg/ml, Ph-SA 5 μg/ml, ampicillin 50 μg/ml, amphotericin B 200 ng/ml, fluconazole 3 μg/ml): no effect on the growth

Cc1nnc(SCC2=C(C(=O)[O-])N3C(=O)[C@@H](NC(=O)Cn4cnnn4)[C@H]3SC2)s1.[Na+] [Cephazoid, sodium Cephazoid]
ED50 ([8]; 1st Time, mice, i.p. infection 8.0 × 10^6 cfu/ml, i.v. treatment after one hour): >10 mg/kg
ED50 ([8]; 2nd Time (value in parentheses), mice, i.p. infection 8.0 × 10^6 cfu/ml, i.v. treatment): (12.91) mg/kg
ED50 ([9]; 1st Time, mice, i.p. infection 1.7 × 10^5 cfu/ml, i.v. treatment after one hour): 11.82 mg/kg
ED50 ([9]; 2nd Time (value in parentheses), mice, i.p. infection 1.7 × 10^5 cfu/ml, i.v. treatment): (>10) mg/kg
ED50 ([10]; 1st Time, mice, i.p. infection 5.5 × 10^5 cfu/ml, i.v. treatment after one hour): 9.04 mg/kg
ED50 ([10]; 2nd Time (value in parentheses), mice, i.p. infection 5.5 × 10^5 cfu/ml, i.v. treatment): (8.78) mg/kg
MIC ([11]; Staphylococcus aureus MRSA BAA-42): 0.5 µg/mL
MIC [13]: 0.03 µg/mL
ED50 [14, 19]: >30.77 mg/kg
ED50 [14, 20]: (>30.77) mg/kg
ED50 [15, 19]: 29.03 mg/kg
ED50 [15, 20]: (11.20) mg/kg

Cc1onc(-c2ccccc2)c1C(=O)N[C@@H]1C(=O)N2[C@@H]1SC(C)(C)[C@@H]2C(=O)O [Oxacillin, oxacillin]
MIC50 [1]: > 128 µg/mL
MIC90 [1]: > 128 µg/mL
MIC ([1]; read-out: MIC Scope): > 128 µg/mL
MIC50 [2]: 16 µg/mL (≈ 39.9 µM)
MIC90 [2]: > 128 µg/mL
MIC50 ([3]; Staphylococcus aureus, MRSA): > 128 µg/mL
MIC90 ([3]; Staphylococcus aureus, MRSA): > 128 µg/mL
MIC ([3]; Staphylococcus aureus, MRSA, read-out: MIC Scope): 0.5 to 128 µg/mL (≈ 1.25 to 319 µM)
MIC50 ([4]; 88 MSSA clinical isolates, read-out: MIC50): 0.125 µg/mL (≈ 0.311 µM)
MIC90 ([4]; 88 MSSA clinical isolates, read-out: MIC90): 0.125 µg/mL (≈ 0.311 µM)
MIC ([4]; 88 MSSA clinical isolates): 0.015 to 0.25 µg/mL (≈ 0.0374 to 0.623 µM)
MIC50 [5]: 64 µg/mL (≈ 159 µM)
MIC90 [5]: > 128 µg/mL
MIC [6]: 0.015 to 0.25 µg/mL (≈ 0.0374 to 0.623 µM)
MIC50 [6]: 0.03 µg/mL (≈ 0.0747 µM)
MIC90 [6]: 0.25 µg/mL (≈ 0.623 µM)
inhibition of growth [18]: did not inhibit the growth

B1: Rev. Ph-CA: Candida albicans alpha mating pheromone at N-terminus (S1) of colicin Ia (protein)
chain: GFRLTNFGYFEPGMSDPVARGITNPGAESLGYDSDGHEIMAVASPIYVASNPPRVASPVFHGTPPAWSSFGNKTIWGGNEWVASPDSPTRSDIEKRDKEITAYKNTLSAQQKENENKRTEAGKRLSAAIAAREKDENTLKTLRAGNADAADITRQEFRLLQAELREYGFRTEIAGYDALRLHTESRMLFADADSLRISPREARSLIEQAEKRQKDAQNADKKAADMLAEYERRKGILDTRLSELEKNGGAALAVLDAQQARLLGQQTRNDRAISEARNKLSSVTESLNTARNALTRAEQQLTQQKNTPDGKTIVSPEKFPGRSSTNHSIVVSGDPRFAGTIKITTSAVIDNRANLNYLLSHSGLDYKRNILNDRNPVVTEDVEGDKKIYNAEVALAEWDKLRQRLLDARNKITSAESAVASNSARNNLSARTNEQKHANDALNALLKEKENIRNQLSGINQKIAEEKRKQDELKATKDAINFTTEFLKSVSEKYGAKAEQLAREMAGQAKGKKIRNVEEALKTYEKYRADINKKINAKDRAAIAAALESVKLSDISSNLNRFSRGLGYAGKFTSLADWITEFGKAVARGTENWRPLFVKTETIIAGNAATALVALALVFSILTGSALGIIGYGLLMAVTGALIDESLVEKANKFWGI
modifications: Candida albicans alpha mating pheromone attached to colicin
inhibition effect as compared to PMC-CA ([17]; 20 μg/ml): about 30%
antifungal effect against Candida albicans in vitro and in vivo ([17]; general statement): no effect
